{
  "source": "patent US12429487B2",
  "about": "“Neurofilament protein for guiding therapeutic intervention in amyotrophic lateral sclerosis” (Biogen MA Inc., priority 2018, dated 2025)",
  "key": {"ALS patients": {"system": "ALS patients", "conditions": "EMPOWER, 12 months, vs placebo", "from_the_text": "EMPOWER was a Phase 3 global randomized clinical trial (RCT) of the safety and efficacy of dexpramipexole in the treatment of ALS conducted at 81 academic medical centers enrolling 943 adults (see Cudkowicz M E et al., Lancet Neurol. 2013 November; 12(11):1059-67).\nThe subjects included in the EMPOWER study had to have a diagnosis of possible, probable, or definite ALS, have had ALS symptoms for fewer than 24 months, have an SVC value that was at least 65% of the predicted value, and no significant comorbidities.\nIn the study, the subjects were allocated in a 1:1 ratio to treatment with dexpramipexole or placebo for 12 months, […]"}, "[1]": {"system": "plasma neurofilament heavy chain (NFH)", "conditions": "EMPOWER, vs placebo, FIG. 2", "source_text": "Determination of baseline as well as longitudinal plasma neurofilament heavy chain (NFH) concentrations in the clinical trial of dexpramipexole, EMPOWER, and assessment of their relationship to clinical outcomes including survival and the rates of decline of muscle strength (assessed by hand-held dynamometry [HHD]), slow vital capacity (SVC), and ALSFRS-R).\nPlasma neurofilament heavy (NFH), measured using a NFH assay on the Ella, an automated microfluidic cartridge based immunoassay platform from Protein Simple."}, "people with ALS": {"system": "people with ALS", "conditions": "cited from earlier work"}, "SOD1 mRNA": {"system": "SOD1 mRNA", "test": "SOD1 mRNA lowering in human neuroblastoma cell line SH-SY5Y", "format": "cell-based", "conditions": "SH-SY5Y cells"}, "SOD1^G93A mice [2]": {"system": "SOD1^G93A mice", "test": "SOD1^G93A mice: weight, rotarod, survival after i.c.v. bolus", "format": "in vivo, mouse", "conditions": "300 μg bolus at 50 and 94 days of age", "description": "To investigate whether a SOD1-lowering ASO strategy could delay disease parameters, SOD1^G93A mice (B6.CgTg(SOD1*G93A)Gur/J) were infused Intracerebroventricular […] with bolus doses of 300 μg ASO1 at 50 and 94 days of age. Weight and performance on rotarod were tested weekly."}, "SOD1^G93A rats": {"system": "SOD1^G93A rats", "test": "SOD1^G93A rats: weight loss onset and survival after intrathecal bolus", "format": "in vivo, rat", "conditions": "1000 μg intrathecal bolus, 65-day-old rats", "description": "SOD1^G93A rats (Taconic Biosciences, model 2148) received a 30-μl intrathecal bolus injection via polyethylene catheter placed between the L3 and L5 vertebrae of the lumber spinal cord. […] All ASOs were diluted in aCSF. All treatment groups were sexual phenotype- and litter-matched to control for drift in copy count or sexual phenotype-induced variances."}, "SOD1^G93A mice [3]": {"system": "SOD1^G93A mice", "test": "SOD1^G93A mice: CMAP and neuromuscular junction innervation", "format": "in vivo, mouse", "conditions": "for compound muscle action potential (CMAP): 100 μg intraventricularly once at 5 weeks of age, next 12 weeks", "from_the_text": "To test whether SOD1 reduction by ASO could affect markers of disease, […] in compound muscle action potential (CMAP), neuromuscular junction innervation, and serum phospho-neurofilament heavy chain (pNfH) levels. In SOD1^G93Amice, CMAP declines over time, preceding the loss of motor neurons."}, "[4]": {"system": "serum phospho-neurofilament heavy chain (pNfH)", "test": "SOD1^G93A mice: serum pNfH by ELLA microfluidic ELISA", "format": "in vivo, mouse", "conditions": "single dose 300 μg at 5 weeks; 8 and 10 weeks of age; vs control ASO, FIG. 4", "description": "pNfH increases in CSF and serum in ALS rodent models, human patients with ALS, and other neurodegenerative diseases. To look at phosphorylated neurofilament heavy chain levels in the serum, blood was collected at baseline (5 weeks) before i.e.v. injection, and then again at 8 and 10 weeks of age from the SOD1^G93A mutant mice injected once at 5 weeks of age with a single dose of 300 μg ASO1). pNfH serum levels were measured through the ELLA microfluidic ELISA platform (Protein Simple) according to the manufacturer's instructions. Briefly, a maximum of 100 μl blood was collected through facial vein puncture at the indicated time points. Serum samples were prepared by centrifugation of BD Vacutainer SST tubes (BD Diagnostics) and stored at −80° C. until used."}, "CSF SOD1 protein": {"system": "CSF SOD1 protein", "test": "SAD/MAD clinical trial in SOD1 ALS patients: CSF SOD1 concentration", "format": "in vivo, human", "conditions": "40 mg, 60 mg and 100 mg cohorts; maximal at 100 mg, Day 85", "description": "(§1) A double-blind, randomized, placebo-controlled, clinical trial was conducted in SOD1 ALS patients. The trial involved single and multiple ascending dose (SAD/MAD) studies. In the MAD portion, participants received 5 doses of study drug over approximately 3 months. Fifty adult participants with SOD1 mutation were randomized 3:1 (ASO: placebo) per cohort to receive 20 mg, 40 mg, 60 mg, or 100 mg of placebo or a SOD-1 decreasing ASO-ASO1 (SEQ ID NO:8)."}, "SOD1 ALS patients": {"system": "SOD1 ALS patients", "test": "SAD/MAD clinical trial in SOD1 ALS patients: ALSFRS-R and SVC", "format": "in vivo, human", "conditions": "vs placebo", "description": "as §1"}, "pNfH and NfL": {"system": "pNfH and NfL", "test": "SAD/MAD clinical trial in SOD1 ALS patients: plasma and CSF pNfH and NfL", "format": "in vivo, human", "description": "as §1\nBaseline pNfH and NfL levels were highest in fast progressing patients and correlated with disease activity (as measured by ALSFRS-R prerandomization slope). […] In FIGS. 7A-7D, overall placebo (n=12) is the solid line at, near, or above the 1.0 baseline measure throughout the study; overall ASO1 100 mg treatment (n=10) is the solid line declining below the 1.0 baseline measure throughout the study; fast progressing placebo (n=4) is the dotted line at, near, or above the 1.0 baseline measure throughout the study; and fast progressing ASO1 100 mg treatment (n=4) is the dotted line declining below the 1.0 baseline measure throughout the study. pNfH levels were assessed using the ProteinSimple™ Simple Plex Ella immunoassay. NfL levels were assessed using the Quanterix Simoa NfL Advantage assay."}},
  "note": "Entries after “also recorded” stand apart in the source; their conditions may differ. Like-named read-outs stand apart in the source and are kept apart here. Oligonucleotides are written 5' to 3', each unit as a sugar letter and its base; * is a phosphorothioate linkage, no mark a phosphodiester; rarer units and linkages stand in square brackets, end groups in braces. Plain capitals give the bases only. e = 2'-O-(2-methoxyethyl) (MOE); k = constrained ethyl (cEt); [5mC] = 5-methylcytosine; d = 2'-deoxy (DNA)",
  "data": [
    {"compound": "CCCN[C@@H]1CCc2nc(N)sc2C1", "note": "[dexpramipexole]", "values": [
      {"measurement": "ALS symptoms / clinical efficacy", "setting": "ALS patients; listed as depramipexole", "result": "did not reduce ALS symptoms"},
      {"measurement": "ALS symptoms / clinical efficacy", "setting": "ALS patients; listed as dexpramiexole", "result": "without clinical efficacy"},
      {"measurement": "longitudinal plasma NFH course", "setting": "[1]", "result": "no difference"}
    ]},
    {"compound": "CC1=NN(c2ccccc2)C(=O)C1", "note": "[edaravone]", "values": [
      {"measurement": "disease progression / decline in daily functioning", "setting": "people with ALS", "result": "reduction the decline in daily functioning"},
      {"measurement": "side effects", "setting": "people with ALS", "result": "bruising, gait disturbance, hives, swelling and shortness of breath"}
    ]},
    {"compound": "Nc1nc2ccc(OC(F)(F)F)cc2s1", "note": "[riluzole]", "values": [
      {"measurement": "disease progression / decline in daily functioning", "setting": "people with ALS", "result": "appears to slow the disease's progression in some people with ALS"},
      {"measurement": "side effects", "setting": "people with ALS", "result": "dizziness, gastrointestinal conditions and liver function changes"}
    ]},
    {"compound": "CAoGGoATACATTTCTACoAGoCT (antisense CAGGATACATTTCTACAGCT; modified backbone linkages at marked places, type not given here) [ASO1]", "values": [
      {"measurement": "SOD1 mRNA", "setting": "SOD1 mRNA", "result": "potently lowered SOD1 mRNA in a dose-dependent manner"},
      {"measurement": "maintained weight, days longer than inactive ASO", "setting": "SOD1^G93A mice [2]", "result": 26, "unit": "days"},
      {"measurement": "median survival longer compared with inactive ASO", "setting": "SOD1^G93A mice [2]", "result": 37, "unit": "days"},
      {"measurement": "extension of survival", "setting": "SOD1^G93A mice [2]; vs inactive ASO", "result": 22, "unit": "%"},
      {"measurement": "performance on rotarod", "setting": "SOD1^G93A mice [2]; vs inactive ASO", "result": "performed better on rotarod"},
      {"measurement": "maintained weight, days longer than aCSF", "setting": "SOD1^G93A rats", "result": 70, "unit": "days"},
      {"measurement": "compound muscle action potential (CMAP)", "setting": "SOD1^G93A mice [3]", "result": "maintained CMAP"},
      {"measurement": "innervation of the tibialis anterior muscles", "setting": "SOD1^G93A mice [3]; single dose 300 μg at 5 weeks of age, FIG. 3", "result": "maintained innervation"},
      {"measurement": "serum pNfH levels", "setting": "[4]", "result": "lower levels of pNfH"},
      {"measurement": "CSF SOD1 concentrations, change from baseline", "setting": "CSF SOD1 protein", "result": "Reductions from baseline"},
      {"measurement": "clinical decline", "setting": "SOD1 ALS patients; patients with fast-progressing SOD1 mutations", "result": "slowing of clinical decline"},
      {"measurement": "functional decline (ALSFRS-R)", "setting": "SOD1 ALS patients; FIG. 6A", "result": "slowing of functional decline"},
      {"measurement": "decline in respiratory function (SVC)", "setting": "SOD1 ALS patients; FIG. 6B", "result": "slowing of decline in respiratory function"},
      {"measurement": "plasma pNfH levels", "setting": "pNfH and NfL; 100 mg over time vs placebo, FIG. 7A", "result": "reduction"},
      {"measurement": "plasma NfL levels", "setting": "pNfH and NfL; 100 mg over time vs placebo, FIG. 7B", "result": "reduction"},
      {"measurement": "CSF NfL levels", "setting": "pNfH and NfL; 100 mg over time vs placebo, FIG. 7D", "result": "reduction"},
      {"measurement": "CSF pNfH levels", "setting": "pNfH and NfL; 100 mg vs placebo, overall", "result": "Lowering of CSF pNfH; also recorded: reduction"},
      {"measurement": "CSF pNfH levels", "setting": "pNfH and NfL; patients with fast-progressing SOD1 mutations, vs placebo", "result": "reduction in CSF pNfH levels"}
    ]},
    {"compound": "CCGTCGCCCTTCAGCACGCA (antisense e[5mC]*e[5mC]*eG*eT*e[5mC]*dG*d[5mC]*d[5mC]*d[5mC]*dT*dT*d[5mC]*dA*dG*d[5mC]*eA*e[5mC]*eG*e[5mC]*eA) [compound 333611, reference compound]", "values": [
      {"measurement": "onset of weight loss, median", "setting": "SOD1^G93A rats", "result": 139, "unit": "days"}
    ]},
    {"compound": "CCoToAoTAGGACTATCCAoGoGoAA (antisense CCTATAGGACTATCCAGGAA; chemically modified at marked places, type not given here) [Inactive ASO (in vivo), reference compound]", "values": [
      {"measurement": "compound muscle action potential (CMAP)", "setting": "SOD1^G93A mice [3]", "result": "reduced by more than half"},
      {"measurement": "denervation of muscle endplates", "setting": "SOD1^G93A mice [3]; tibialis anterior, FIG. 3", "result": "more than 75%"}
    ]},
    {"compound": "TToAoATGTTTATCAoGoGAT (antisense eT*eTeAeA*dT*dG*dT*dT*dT*dA*dT*d[5mC]*kAkGeG*eA*eT) [ASO2]", "values": [
      {"measurement": "SOD1 mRNA", "setting": "SOD1 mRNA", "result": "potently lowered SOD1 mRNA in a dose-dependent manner"},
      {"measurement": "maintained weight, days longer than aCSF", "setting": "SOD1^G93A rats", "result": 67, "unit": "days"}
    ]}
  ]
}
